The values below come from US11926860B2, “Method of screening inhibitor of caspase activity by lipopolysaccharide” (KOREA INSTITUTE OF SCIENCE AND TECHNOLOGY, priority 2021, dated 2024).

The target in test [1] is T1, binding of CARD and LPS (Homo sapiens, UniProt P49662, M1C).
T1 construct: three types of cysteine-inserted CARD(1-80) variants (Cys-His-CARD, His-Cys-CARD (M1C-CARD), and His-CARD-Cys); His6 (N); made in house; host or cells: E. coli CLEARCOLI BL21(DE3)
T1 sequence (P49662 1-80 M1C): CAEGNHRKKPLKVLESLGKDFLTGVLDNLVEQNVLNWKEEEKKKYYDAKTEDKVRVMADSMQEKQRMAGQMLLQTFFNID
Kind of test: FP competition assay of hit compounds. As to conditions: compound 50 μM to 0.022 μM, 6.4 μM LPS-Ra, 50 nM tracer, buffer C, 37° C. 1 hour. As for the experimental part: In detail, the FP competition assay was performed by mixing 50 nM of tracer, 6.4 μM of LPS-Ra, and 3-fold serially diluted hit compound (50 μM to 0.022862 μM) in buffer C. The mixture was incubated at 37° C. for 1 hour before measurement. FP values were expressed as a function of compound concentrations, and IC50 values were obtained from a sigmoidal curve fit, as analyzed in GRAPHPAD PRISM 8.

A short description of test [2]: FP binding assay of ALEXA FLUOR 488-CARD and LPS. As to conditions: for effect of additive on binding of CARD and LPS: buffer C with 0.1 mg/mL BSA, 0.01% NP-40, or 1 mM MC (MgCl2+CaCl2), 37° C. 1 hour. As for the experimental part: Fluorescence polarization (FP) was measured with an APPLISKAN microplate reader (ThermoFisher) using 485 nm excitation and 535 nm emission filters. The FP value was calculated according to the following equation: FP (mP)=1000×(Is−G×Ip)/(Is+G×Ip). In the equation, Is represents a parallel (equivalent) emission intensity, Ip represents a perpendicular emission intensity, and G represents a lattice coefficient 0.877.
FP binding assay was performed by adding 200 μL of a reaction mixture to each well of a black 96-well plate (SPL Life Sciences). The reaction mixture includes 50 nM ALEXA FLUOR 488-CARD (tracer) with increasing concentrations of LPS-Ra (in the range of 0 μM to 12.8 μM, a molecular weight of LPS-Ra is assumed to be 3,835 g/mole, Sigma-Aldrich) in a buffer C or an indicated buffer. The reaction mixture was incubated at 37° C. for 30 minutes to 4 hours before reaction. FP values are expressed as a function of LPS-Ra concentration. FP binding curves of His-Cys-CARD (ALEXA FLUOR 488-CARD) or ALEXA FLUOR 488 alone (dye) with respect to the concentrations of LPS are shown in FIG. 2E.
Apparent equilibrium dissociation constants (Kd^app) were calculated from the nonlinear regression curve fit, as analyzed in GRAPHPAD PRISM 8 from the FP binding curves.
An FP binding curve from FP values measured with buffer C (50 mM Tris-HCl pH 7.0, 150 mM NaCl) supplemented with additives such as 0.1 mg/mL BSA, 0.01% NP-40, or 1 mM MC (MgCl2+CaCl2) is shown in FIG. 3A. An FP binding curve from FP values measured by incubating ALEXA FLOUR 488-CARD serially diluted with buffer C for 0.5 hours to 4 hours is shown in FIG. 3B (grey area: range of 20 nM to 50 nM). An FP binding curve from FP values measured by incubating different concentrations of LPS-Ra in buffer C for 0.5 hours to 4 hours is shown in FIG. 3D. An FP binding curve from FP values measured with buffer C supplemented with different concentrations of DMSO is shown in FIG. 3E. In addition, LPS-Ra concentration-dependent Z′ factor was evaluated in buffer C supplemented with 0% to 10% DMSO. […]

Test [3] is described as follows: Tryptophan fluorescence spectrometry of Casp-4 constructs binding to LPS. As to conditions: for Kd: 1 μM protein, LPS-Ra 0 μM to 50 μM, HBS-E buffer, 37° C. 30 minutes, fluorescence intensity at 334 nm, read-out: apparent equilibrium dissociation constant (Kd^app). As for the experimental part: Apparent dissociation constants were measured by tryptophan fluorescence spectrometry. […] Apparent dissociation constant values were calculated by analyzing the fluorescence emission spectra.
Fluorescence spectra were obtained with a FluoroMate FS-2 fluorescence spectrophotometer (Sinco) equipped with a quartz cuvette with a 5 mm path length. 1 μM of the recombinant protein was mixed with increasing concentrations of LPS-Ra (in the range of 0 μM to 50 μM) in an HBS-E buffer (10 mM HEPES pH 7.5, 150 mM NaCl, 3 mM EDTA), and incubated at 37° C. for 30 minutes. The sample was excited at 280 nm, and emission spectra at 300 nm to 500 nm were recorded with an excitation/emission slit width of 2.5/5 nm, respectively. The fluorescence intensity of the sample was corrected by subtracting the background intensity of LPS alone. A difference in the fluorescence intensity at 334 nm was expressed as a function of LPS-Ra concentration, and the apparent equilibrium dissociation constant (Kd^app) was calculated from the nonlinear regression curve fit, as analyzed in GRAPHPAD PRISM 8. Graphs showing the emission spectra of the tryptophan residue in full-length C258A-Casp-4, CARD, and ΔCARD-C258A-Casp-4 in LPS-Ra (0 μM to 50 μM) are shown in FIG. 1B.

A short description of test [4]: Surface plasmon resonance (SPR) of Casp-4 constructs on immobilized LPS. Format: binding, E. coli. As to conditions: for Kd: 25° C., NH-LPS O55:B5 on CM5 chip, HBS-E, read-out: dissociation constant. As for the experimental part:
In addition, the binding affinity between Casp-4 and LPS was determined by a surface plasmon resonance (SPR) experiment. The SPR experiment was performed at 25° C. using a BIACORE T200 (Cytiva). A filtered and degassed running buffer (HBS-E) was prepared prior to use. Amine-derived LPS O55:B5 (NH-LPS, Sigma-Aldrich) was prepared by a method described in P. T. Wong et al., J Mater Chem B, 2015, 3, 1149-1156, herein incorporated by reference. NH-LPS was immobilized on a CM5 sensor chip (Cytiva) using an amine coupling method (480 RU), and blocked with 1 M ethanolamine (pH 8.5). Purified proteins of the indicated concentration were injected, and the resulting sensorgrams were analyzed using a BIACORE T200 Evaluation software.
A general note: SPR reads the build-up and loss of mass on a sensor chip optically.

Changes are numbered by the printed parent chain. Names and notes keep the numbering of the source.

As for `CN(C)c1ccc(C(=C2C=CC(=[N+](C)C)C=C2)c2ccc(N(C)C)cc2)cc1` [C-5, Crystal violet], in test [1], the “IC50 (FP signal decrease, concentration-dependent)” value is on record as “μM level”.

For `Cc1cc(Nc2ncc(Cl)c(Nc3ccccc3S(=O)(=O)C(C)C)n2)c(OC(C)C)cc1C1CCNCC1` [C-16, Ceritinib], the “IC50 (FP signal decrease, concentration-dependent)” value in test [1] is “μM level”. As to NP-40, in test [2], the “effect of additive on binding of CARD and LPS” value is on record as “inhibited”.

For the molecule `O=C1c2c(O)ccc(O)c2C(=O)c2c(NCCNCCO)ccc(NCCNCCO)c21` [C-6, Mitoxantrone], the “IC50 (FP signal decrease, concentration-dependent)” value in test [1] was “μM level”. As for `CCOc1ccc2nc3cc(N)ccc3c(N)c2c1` [C-8, Ethacridine lactate], the “IC50 (FP signal decrease, concentration-dependent)” value in test [1] is “μM level”. In the case of `CC1=NN(c2ccc(C)c(C)c2)C(=O)/C1=N\Nc1cccc(-c2cccc(C(=O)O)c2)c1O` [C-11, Eltrombopag Olamine], in test [1], the “IC50 (FP signal decrease, concentration-dependent)” value is listed as “μM level”. For `CN1CCN(c2ccc(C(=O)Nc3n[nH]c4ccc(Cc5cc(F)cc(F)c5)cc34)c(NC3CCOCC3)c2)CC1` [C-19, Entrectinib], the “IC50 (FP signal decrease, concentration-dependent)” value in test [1] is on record as “μM level”. bovine serum albumin [BSA]: in test [2], the “effect of additive on binding of CARD and LPS” value is recorded as “inhibited”. For `CN1CCN(c2nc(C3=C(c4c[nH]c5ccccc45)C(=O)NC3=O)c3ccccc3n2)CC1` [C-15, Sotrastaurin], in test [1], the “IC50 (FP signal decrease, concentration-dependent)” value is recorded as “μM level”. With `Cn1cc(C2=C(c3cn(C4CCN(Cc5ccccn5)CC4)c4ccccc34)C(=O)NC2=O)c2ccccc21` [C-13, Enzastaurin], in test [1], the “IC50 (FP signal decrease, concentration-dependent)” value is “μM level”.

B1: ΔCARD-C258A-Casp-4: CARD truncated Casp-4 (81-377, C258A modification) (protein, UniProt P49662 81-377, looked up, fragment C258A)
chain: QISPNKKAHPNMEAGPPESGESTDALKLCPHEEFLRLCKERAEEIYPIKERNNRTRLALIICNTEFDHLPPRNGADFDITGMKELLEGLDYSVDVEENLTARDMESALRAFATRPEHKSSDSTFLVLMSHGILEGICGTVHDEKKPDVLLYDTIFQIFNNRNCLSLKDKPKVIIVQAARGANRGELWVRDSPASLEVASSQSSENLEEDAVYKTHVEKDFIAFCSSTPHNVSWRDSTMGSIFITQLITCFQKYSWCCHLEEVFRKVQQSFETPRAKAQMPTIERLSMTRYFYLFPGN
For B1, the “binding to LPS” value in test [3] (tryptophan fluorescence, FIG. 1B) is reported as “not identified”; in test [4] (FIG. 1C) it was “not identified”.

B2: C258A-Casp-4: Catalytically inactive full-length Casp-4 (1-377, C258A modification) (protein, UniProt P49662 1-377, looked up, variant C258A)
chain: MAEGNHRKKPLKVLESLGKDFLTGVLDNLVEQNVLNWKEEEKKKYYDAKTEDKVRVMADSMQEKQRMAGQMLLQTFFNIDQISPNKKAHPNMEAGPPESGESTDALKLCPHEEFLRLCKERAEEIYPIKERNNRTRLALIICNTEFDHLPPRNGADFDITGMKELLEGLDYSVDVEENLTARDMESALRAFATRPEHKSSDSTFLVLMSHGILEGICGTVHDEKKPDVLLYDTIFQIFNNRNCLSLKDKPKVIIVQAARGANRGELWVRDSPASLEVASSQSSENLEEDAVYKTHVEKDFIAFCSSTPHNVSWRDSTMGSIFITQLITCFQKYSWCCHLEEVFRKVQQSFETPRAKAQMPTIERLSMTRYFYLFPGN
modifications: full-length
B2: the figures for the Kd in test [3] and in test [4] were 5300 ± 500 nM and 2400 nM, respectively.

B3: CARD: caspase activation and recruitment domain of Casp-4, residues 1-80, His6 tag at the N-terminus (protein)
chain: T1 sequence (P49662 1-80 M1C) with C1M
modifications: N-terminal His6 tag; Caspase-4 CARD polypeptide
In the case of B3, the Kd was 6500 ± 800 nM in test [3] and 2100 nM in test [4].

B4: ALEXA FLOUR 488-CARD: ALEXA FLUOR 488-labeled His-Cys-CARD (M1C-CARD), tracer for FP assays (conjugate, UniProt P49662 1-80, looked up, fragment M1C)
chain: T1 sequence (P49662 1-80 M1C)
modifications: CARD Alexa Fluor 488 label; His tag
notes: ALEXA FLUOR 488-labeled His-Cys-CARD (M1C-CARD), tracer for FP assays
On to B4, for which the Kd in test [2] (50 nM ALEXA FLOUR 488-CARD, LPS-Ra 0 μM to 12.8 μM, buffer C, 37° C., read-out: Kd^app) stood at 2200 ± 200 nM.
